From US12673975B2, “Cyclic peptide, cell scaffold material, cell separating material, and medium” (FUJIFILM Corporation, priority 2019, dated 2026)
Like-named read-outs stand apart in the source and are kept apart here. Starred links: 1 amine or outer side, 2 acyl side, 3 side chain; linkers in the order of their positions; H or OH if unused. Positions of bridges follow the written chain, without caps; N, C: chain ends. Non-standard residues stand in square brackets, D forms with d. Residues, ends and D or L forms follow the SMILES beside them. hCys = N[C@@H](CCS)C(=O)O; Orn = NCCC[C@H](N)C(=O)O; Dab = NCC[C@H](N)C(=O)O; Dap = NC[C@H](N)C(=O)O; X1 = O=C(C[*:2])[*:1]; X2 = O=C(C[*:1])[*:2]

Legend:
[1] = target: human integrin αvβ5 (Homo sapiens, UniProt P06756+P18084); assay: Evaluation of integrin binding property (surface plasmon resonance, Biacore 3000, immobilized cyclic peptide)
human integrin αvβ5, sequence (P06756 31-1048): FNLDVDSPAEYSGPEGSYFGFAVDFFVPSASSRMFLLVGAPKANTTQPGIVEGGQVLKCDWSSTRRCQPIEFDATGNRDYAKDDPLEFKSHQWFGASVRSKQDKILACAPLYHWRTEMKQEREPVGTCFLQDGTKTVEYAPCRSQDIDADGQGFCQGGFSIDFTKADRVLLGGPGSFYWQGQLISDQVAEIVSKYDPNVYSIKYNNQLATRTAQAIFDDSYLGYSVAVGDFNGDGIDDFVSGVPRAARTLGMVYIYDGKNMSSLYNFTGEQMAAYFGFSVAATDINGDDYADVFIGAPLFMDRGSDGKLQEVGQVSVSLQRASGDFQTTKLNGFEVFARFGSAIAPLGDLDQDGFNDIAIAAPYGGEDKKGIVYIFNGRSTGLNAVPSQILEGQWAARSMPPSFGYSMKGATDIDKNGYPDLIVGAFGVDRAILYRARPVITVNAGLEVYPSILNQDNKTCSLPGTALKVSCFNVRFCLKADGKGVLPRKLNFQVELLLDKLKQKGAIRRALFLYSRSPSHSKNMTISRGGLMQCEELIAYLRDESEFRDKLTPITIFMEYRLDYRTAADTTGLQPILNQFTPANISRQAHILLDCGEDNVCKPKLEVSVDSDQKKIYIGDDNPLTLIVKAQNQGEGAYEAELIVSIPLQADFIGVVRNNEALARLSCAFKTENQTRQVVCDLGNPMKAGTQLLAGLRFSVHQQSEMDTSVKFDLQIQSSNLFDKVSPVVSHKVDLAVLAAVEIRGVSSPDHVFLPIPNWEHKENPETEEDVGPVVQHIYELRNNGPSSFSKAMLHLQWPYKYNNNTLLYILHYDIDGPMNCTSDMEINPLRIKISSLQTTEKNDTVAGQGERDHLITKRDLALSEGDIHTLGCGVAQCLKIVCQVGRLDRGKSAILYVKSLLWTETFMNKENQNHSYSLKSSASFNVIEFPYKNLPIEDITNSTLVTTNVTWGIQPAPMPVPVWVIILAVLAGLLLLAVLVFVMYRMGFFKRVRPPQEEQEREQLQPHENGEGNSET
human integrin αvβ5, sequence (P18084 24-799): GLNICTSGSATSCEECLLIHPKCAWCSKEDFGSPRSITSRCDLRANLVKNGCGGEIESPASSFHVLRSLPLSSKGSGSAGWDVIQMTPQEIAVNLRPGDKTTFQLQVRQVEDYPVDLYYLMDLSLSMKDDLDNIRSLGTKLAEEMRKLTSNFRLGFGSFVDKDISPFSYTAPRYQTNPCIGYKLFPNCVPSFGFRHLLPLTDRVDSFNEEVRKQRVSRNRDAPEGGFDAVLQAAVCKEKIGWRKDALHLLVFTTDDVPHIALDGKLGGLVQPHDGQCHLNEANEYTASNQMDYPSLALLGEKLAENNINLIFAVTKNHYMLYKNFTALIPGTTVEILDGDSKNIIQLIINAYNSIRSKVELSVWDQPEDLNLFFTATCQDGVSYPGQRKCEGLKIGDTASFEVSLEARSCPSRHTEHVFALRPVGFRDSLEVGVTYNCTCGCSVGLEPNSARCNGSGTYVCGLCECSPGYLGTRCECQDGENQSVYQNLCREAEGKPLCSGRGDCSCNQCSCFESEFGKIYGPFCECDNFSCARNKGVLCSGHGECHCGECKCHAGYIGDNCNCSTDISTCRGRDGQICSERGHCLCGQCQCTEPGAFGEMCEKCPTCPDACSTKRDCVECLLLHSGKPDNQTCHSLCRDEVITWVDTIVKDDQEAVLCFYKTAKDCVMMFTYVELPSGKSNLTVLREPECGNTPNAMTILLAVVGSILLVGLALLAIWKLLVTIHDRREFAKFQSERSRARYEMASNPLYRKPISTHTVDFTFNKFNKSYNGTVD
How it was run: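 Human αvβ5 (30-1,000 nM) flowed for 10 min at 25 °C over immobilized cyclic peptide in 20 mM HEPES, 150 mM NaCl, 5 mM MgCl2, pH 7.4, followed by 30 min running buffer and 0.5 M EDTA regeneration. Dissociation constant from peptide minus unimmobilized channel, scored into standard grades.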

[2] = Evaluation of molecule stability (alkali treatment, residual rate by LC/MS); format: physicochemical; details: for Stability (molecule stability, residual rate of the cyclic peptide rank): alkali treatment, residual rate by LC/MS; for Performance evaluation: Stability (residual rate of cyclic peptide after alkali treatment): 500 μM peptide aqueous solution plus equivalent of 1 M sodium hydroxide, 15° C., 3 hours, LC/MS peak area
How it was run: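 Stability read as percent of summed LC/MS peak area remaining versus untreated peptide (C18, 45 °C, 10 mM ammonium formate pH 3, ESI positive/negative). Treatment: 500 μM peptide in water plus an equivalent of 1 M NaOH, 15 °C for 3 hours.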

[3] = surface plasmon resonance, immobilized cyclic peptide, human integrin αvβ5, read-out: Binding activity (integrin binding property, dissociation constant rank)
[4] = SPR, 25° C., HEPES buffer with 5 mM magnesium chloride, integrin 30-1,000 nM, read-out: Performance evaluation: Binding activity (dissociation constant between the cyclic peptide and human integrin αvβ5)

Structure (SMILES): CC[C@H](C)[C@@H]1NC(=O)[C@@H](NC(=O)[C@H](C)N)CCSCC(=O)NCC[C@@H](C(=O)NCC(=O)O)NC(=O)[C@H](C)NC(=O)[C@H](Cc2ccccc2)NC(=O)[C@H](CO)NC(=O)[C@H](CC(=O)O)NC(=O)CNC(=O)[C@H](CCCNC(=N)N)NC(=O)[C@@H]2CCCN2C1=O [Cyclic peptide 127, A-(Hcy)-IPRGDSFA(Dab(acetyl))G] (H-A[hCys]IPRGDSFA[Dab]G-OH; linker 2-11 via X2)
- Kd [1, 3]: < 50 nM
- Stability (molecule stability, residual rate of the cyclic peptide rank) [2]: A (The residual rate of the cyclic peptide is 70% or more.)

Structure (SMILES): CC[C@H](C)[C@@H]1NC(=O)[C@@H](NC(=O)[C@H](CCCCN)NC(=O)[C@H](CCCCN)NC(=O)[C@@H](N)CCCCN)CCSCC(=O)NCC[C@@H](C(=O)N[C@@H](C)C(=O)O)NC(=O)[C@H](Cc2ccccc2)NC(=O)[C@H](CC(N)=O)NC(=O)[C@H](CC(=O)O)NC(=O)CNC(=O)[C@H](CCCNC(=N)N)NC(=O)[C@@H]2CCCN2C1=O [Cyclic peptide 10, KKK-(Hcy)-IPRGDNF(Dab(acetyl))A] (H-KKK[hCys]IPRGDNF[Dab]A-OH; linker 4-12 via X2)
- Kd [1, 4]: 50 to 100 nM
- Performance evaluation: Stability (residual rate of cyclic peptide after alkali treatment) [2]: A (The residual rate of the cyclic peptide is 70% or more.)

Structure (SMILES): CC[C@H](C)[C@@H]1NC(=O)[C@@H](NC(=O)[C@H](C)NC(=O)[C@H](CCCCN)NC(=O)[C@H](CCCCN)NC(=O)[C@@H](N)CCCCN)CCSCC(=O)NCC[C@@H](C(=O)N[C@@H](C)C(=O)O)NC(=O)[C@H](CCCNC(=N)N)NC(=O)[C@H](Cc2ccccc2)NC(=O)[C@H]([C@@H](C)O)NC(=O)[C@H](CC(=O)O)NC(=O)CNC(=O)[C@H](CCCNC(=N)N)NC(=O)[C@H]([C@@H](C)O)NC1=O [Cyclic peptide 76, KKKA-(Hcy)-ITRGDTFR(Dab(acetyl))A] (H-KKKA[hCys]ITRGDTFR[Dab]A-OH; linker 5-14 via X2)
- Kd [1, 4]: 50 to 100 nM
- Performance evaluation: Stability (residual rate of cyclic peptide after alkali treatment) [2]: A (The residual rate of the cyclic peptide is 70% or more.)

Structure (SMILES): CC[C@H](C)[C@@H]1NC(=O)[C@@H](NC(=O)CNC(=O)[C@H](CCCCN)NC(=O)[C@H](CCCCN)NC(=O)[C@@H](N)CCCCN)CCCNC(=O)CSC[C@@H](C(=O)N[C@@H](C)C(=O)O)NC(=O)[C@H](CCCNC(=N)N)NC(=O)[C@H](Cc2ccccc2)NC(=O)[C@H]([C@@H](C)O)NC(=O)[C@H](CC(=O)O)NC(=O)CNC(=O)[C@H](CCCNC(=N)N)NC(=O)[C@@H]2CCCN2C1=O [Cyclic peptide 139, KKKG(Orn(acetyl))IPRGDTFR(C)A] (H-KKKG[Orn]IPRGDTFRCA-OH; linker 5-14 via X1)
- Kd [1, 3]: < 50 nM
- Stability (molecule stability, residual rate of the cyclic peptide rank) [2]: C (The residual rate of the cyclic peptide is 30% or more and less than 50%.)

Structure (SMILES): C[C@H](NC(=O)[C@H](CCCCN)NC(=O)[C@H](CCCCN)NC(=O)[C@@H](N)CCCCN)C(=O)N[C@H]1CNC(=O)CSCC[C@@H](C(=O)O)NC(=O)[C@H](CCCNC(=N)N)NC(=O)[C@H](Cc2ccc(O)cc2)NC(=O)[C@H](CC(N)=O)NC(=O)[C@H](CC(=O)O)NC(=O)CNC(=O)[C@H](CCCNC(=N)N)NC(=O)[C@@H]2CCCN2C(=O)[C@H](CCC(=O)O)NC1=O [Cyclic peptide 47, KKKA(Dap(acetyl))EPRGDNYR-(Hcy)] (H-KKKA[Dap]EPRGDNYR[hCys]-OH; linker 5-14 via X1)
- Kd [1, 4]: 50 to 100 nM
- Performance evaluation: Stability (residual rate of cyclic peptide after alkali treatment) [2]: B (The residual rate of the cyclic peptide is 50% or more and less than 70%.)

Structure (SMILES): CC[C@H](C)[C@@H]1NC(=O)[C@@H](NC(=O)[C@H](C)NC(=O)[C@H](CCCCN)NC(=O)[C@H](CCCCN)NC(=O)[C@@H](N)CCCCN)CCSCC(=O)NCC[C@@H](C(=O)N[C@@H](C)C(=O)O)NC(=O)[C@H](CCCNC(=N)N)NC(=O)[C@H](Cc2ccccc2)NC(=O)[C@H]([C@@H](C)O)NC(=O)[C@H](CC(=O)O)NC(=O)CNC(=O)[C@H](CCCNC(=N)N)NC(=O)[C@H](CO)NC1=O [Cyclic peptide 77, KKKA-(Hcy)-ISRGDTFR(Dab(acetyl))A] (H-KKKA[hCys]ISRGDTFR[Dab]A-OH; linker 5-14 via X2)
- Kd [1, 4]: < 50 nM
- Performance evaluation: Stability (residual rate of cyclic peptide after alkali treatment) [2]: A (The residual rate of the cyclic peptide is 70% or more.)

Structure (SMILES): C[C@H](NC(=O)[C@@H]1CCNC(=O)CSCC[C@H](NC(=O)[C@H](CCCCN)NC(=O)[C@H](CCCCN)NC(=O)[C@@H](N)CCCCN)C(=O)N2CCC[C@H]2C(=O)N[C@@H](CCCNC(=N)N)C(=O)NCC(=O)N[C@@H](CC(=O)O)C(=O)N[C@@H](CC(N)=O)C(=O)N[C@@H](Cc2ccccc2)C(=O)N[C@@H](CCCNC(=N)N)C(=O)N1)C(=O)O [Cyclic peptide 9, KKK-(Hcy)-PRGDNFR(Dab(acetyl))A] (H-KKK[hCys]PRGDNFR[Dab]A-OH; linker 4-12 via X2)
- Kd [1, 4]: 100 to 200 nM
- Performance evaluation: Stability (residual rate of cyclic peptide after alkali treatment) [2]: A (The residual rate of the cyclic peptide is 70% or more.)

Structure (SMILES): CC[C@H](C)[C@@H]1NC(=O)[C@@H](NC(=O)[C@H](CCCCN)NC(=O)[C@H](CCCCN)NC(=O)[C@@H](N)CCCCN)CCSCC(=O)NCC[C@@H](C(=O)N[C@@H](C)C(=O)O)NC(=O)[C@H](CCCNC(=N)N)NC(=O)[C@H](Cc2ccccc2)NC(=O)[C@H](CC(N)=O)NC(=O)[C@H](CC(=O)O)NC(=O)CNC(=O)[C@H](CCCNC(=N)N)NC(=O)[C@@H]2CCCN2C1=O [Cyclic peptide 3, KKK-(Hcy)-IPRGDNFR(Dab(acetyl))A] (H-KKK[hCys]IPRGDNFR[Dab]A-OH; linker 4-13 via X2)
- Kd [1, 4]: < 50 nM
- Performance evaluation: Stability (residual rate of cyclic peptide after alkali treatment) [2]: A (The residual rate of the cyclic peptide is 70% or more.)

Structure (SMILES): CC[C@H](C)[C@@H]1NC(=O)[C@@H](NC(=O)[C@H](C)NC(=O)[C@H](CCCCN)NC(=O)[C@H](CCCCN)NC(=O)[C@@H](N)CCCCN)CCSCC(=O)NCC[C@@H](C(=O)N[C@@H](C)C(=O)O)NC(=O)[C@H](C)NC(=O)[C@H](Cc2ccccc2)NC(=O)[C@H](CO)NC(=O)[C@H](CC(=O)O)NC(=O)CNC(=O)[C@H](CCCNC(=N)N)NC(=O)[C@@H]2CCCN2C1=O [Cyclic peptide 92, KKKA-(Hcy)-IPRGDSFA(Dab(acetyl))A] (H-KKKA[hCys]IPRGDSFA[Dab]A-OH; linker 5-14 via X2)
- Kd [1, 4]: < 50 nM
- Performance evaluation: Stability (residual rate of cyclic peptide after alkali treatment) [2]: A (The residual rate of the cyclic peptide is 70% or more.)

Structure (SMILES): CC[C@H](C)[C@@H]1NC(=O)[C@@H](NC(=O)CNC(=O)[C@H](CCCCN)NC(=O)[C@H](CCCCN)NC(=O)[C@@H](N)CCCCN)CNC(=O)CSCC[C@@H](C(=O)N[C@@H](C)C(=O)O)NC(=O)[C@H](CCCNC(=N)N)NC(=O)[C@H](Cc2ccccc2)NC(=O)[C@H]([C@@H](C)O)NC(=O)[C@H](CC(=O)O)NC(=O)CNC(=O)[C@H](CCCNC(=N)N)NC(=O)[C@@H]2CCCN2C1=O [Cyclic peptide 117, KKKG(Dap(acetyl))IPRGDTFR-(Hcy)-A] (H-KKKG[Dap]IPRGDTFR[hCys]A-OH; linker 5-14 via X1)
- Kd [1, 3]: < 50 nM
- Stability (molecule stability, residual rate of the cyclic peptide rank) [2]: B (The residual rate of the cyclic peptide is 50% or more and less than 70%.)
